# Reference: US8999940B2 (Ipsen Pharma S.A.S., priority 2008, dated 2015)
# Where a SMILES comes first, the peptide text is derived from it. Where no end group is shown, it is not given here. [ ]: non-standard residue; d: D form. The star is where a group is joined. Tic(7-OH) = O=C(O)[C@@H]1Cc2ccc(O)cc2CN1; Desaminotyrosyl = O=C(CCc1ccc(O)cc1)*; Nle = CCCC[C@H](N)C(=O)O; Ac5c = NC1(C(=O)O)CCCC1; Aib = CC(C)(N)C(=O)O
# Target: T1, human recombinant GIP receptor (Homo sapiens, UniProt P48546)
# T1 construct: expressed in transfected cells; host or cells: CHO-K1 clonal cells (membrane preparation)
# T1 sequence (P48546 22-466): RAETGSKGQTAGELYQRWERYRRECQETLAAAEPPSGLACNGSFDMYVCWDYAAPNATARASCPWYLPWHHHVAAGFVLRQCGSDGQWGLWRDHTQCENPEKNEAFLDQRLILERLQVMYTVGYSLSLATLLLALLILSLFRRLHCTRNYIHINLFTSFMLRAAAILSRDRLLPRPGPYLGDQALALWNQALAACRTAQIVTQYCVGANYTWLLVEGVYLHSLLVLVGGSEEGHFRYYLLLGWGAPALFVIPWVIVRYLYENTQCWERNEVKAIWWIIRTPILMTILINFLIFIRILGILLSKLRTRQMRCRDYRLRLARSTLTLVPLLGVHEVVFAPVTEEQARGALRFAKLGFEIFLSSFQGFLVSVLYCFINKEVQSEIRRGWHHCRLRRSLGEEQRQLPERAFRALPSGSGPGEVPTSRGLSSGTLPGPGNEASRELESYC
# Test: In vitro hGIP receptor binding assay
# Details: not given
# Method: A. In Vitro hGIP Receptor Binding Assay […] The incubations were terminated by rapid filtration through GF/C filters (pre-soaked in 0.5% polyethylenimine) using a Brandel filtration manifold. Each tube and filter were then washed three times with 5-ml aliquots of ice-cold buffer.
row,Compound,Ki [nM]
1,"CCCC[C@H](NC(=O)[C@H](C)NC(=O)[C@@H](NC(=O)C(C)(C)NC(=O)[C@H](Cc1ccc(O)cc1)NC(=O)[C@H](CC(=O)O)NC(=O)[C@H](CO)NC(=O)[C@@H](NC(=O)[C@H](Cc1ccccc1)NC(=O)[C@@H](NC(=O)CNC(=O)[C@H](CCC(=O)O)NC(=O)C(C)(C)NC(=O)CCc1ccc(O)cc1)[C@@H](C)O)[C@@H](C)CC)[C@@H](C)CC)C(=O)N[C@@H](CC(=O)O)C(=O)N[C@@H](CCCCN)C(=O)N[C@H](C(=O)N[C@@H](Cc1c[nH]cn1)C(=O)N[C@@H](CCC(N)=O)C(=O)N[C@@H](CCC(N)=O)C(=O)N[C@@H](CC(=O)O)C(=O)N[C@@H](Cc1ccccc1)C(=O)N[C@H](C(=O)N[C@@H](CC(N)=O)C(=O)N[C@@H](Cc1c[nH]c2ccccc12)C(=O)N[C@@H](CC(C)C)C(=O)N[C@@H](CC(C)C)C(=O)N[C@@H](C)C(=O)N[C@@H](CCC(N)=O)C(=O)N[C@@H](CCCCN)C(N)=O)C(C)C)[C@@H](C)CC [Example 2, (4Hppa^1, Aib^2,11, Nle^14)hGIP(1-30)-NH2] (Desaminotyrosyl-[Aib]EGTFISDY[Aib]IA[Nle]DKIHQQDFVNWLLAQK-NH2)",20.3
2,"CC[C@H](C)[C@H](NC(=O)[C@H](CO)NC(=O)[C@H](Cc1ccc(O)cc1)NC(=O)[C@H](CC(=O)O)NC(=O)[C@H](CO)NC(=O)[C@@H](NC(=O)[C@H](Cc1ccccc1)NC(=O)[C@@H](NC(=O)CNC(=O)[C@H](CCC(=O)O)NC(=O)C(C)(C)NC(=O)CCc1ccc(O)cc1)[C@@H](C)O)[C@@H](C)CC)C(=O)N[C@@H](C)C(=O)N[C@@H](CCSC)C(=O)N[C@@H](CC(=O)O)C(=O)N[C@@H](CCCCN)C(=O)N[C@H](C(=O)N[C@@H](Cc1c[nH]cn1)C(=O)N[C@@H](CCC(N)=O)C(=O)N[C@@H](CCC(N)=O)C(=O)N[C@@H](CC(=O)O)C(=O)N[C@@H](Cc1ccccc1)C(=O)N[C@H](C(=O)N[C@@H](CC(N)=O)C(=O)N[C@@H](Cc1c[nH]c2ccccc12)C(=O)N[C@@H](CC(C)C)C(=O)N[C@@H](CC(C)C)C(=O)N[C@@H](C)C(=O)N[C@@H](CCC(N)=O)C(=O)N[C@@H](CCCCN)C(N)=O)C(C)C)[C@@H](C)CC [Example 6, (4Hppa^1, Aib^2)hGIP(1-30)-NH2]",1.58
3,"CCCC[C@H](NC(=O)[C@H](C)NC(=O)[C@@H](NC(=O)C1(NC(=O)[C@H](Cc2ccc(O)cc2)NC(=O)[C@H](CC(=O)O)NC(=O)[C@H](CO)NC(=O)[C@@H](NC(=O)[C@H](Cc2ccccc2)NC(=O)[C@@H](NC(=O)CNC(=O)[C@H](CCC(=O)O)NC(=O)C(C)(C)NC(=O)[C@@H](N)Cc2ccc(O)c(Br)c2)[C@@H](C)O)[C@@H](C)CC)CCCC1)[C@@H](C)CC)C(=O)N[C@@H](CC(=O)O)C(=O)N[C@@H](CCCCN)C(=O)N[C@H](C(=O)N[C@@H](Cc1c[nH]cn1)C(=O)N[C@@H](CCC(N)=O)C(=O)N[C@@H](CCC(N)=O)C(=O)N[C@@H](CC(=O)O)C(=O)N[C@@H](Cc1ccccc1)C(=O)N[C@H](C(=O)N[C@@H](CC(N)=O)C(=O)N[C@@H](Cc1c[nH]c2ccccc12)C(=O)N[C@@H](CC(C)C)C(=O)N[C@@H](CC(C)C)C(=O)N[C@@H](C)C(=O)N[C@@H](CCC(N)=O)C(=O)N[C@@H](CCCCN)C(=O)NCC(=O)N[C@@H](CCCCN)C(=O)N[C@@H](CCCCN)C(=O)N[C@@H](CC(N)=O)C(=O)N[C@@H](CC(=O)O)C(=O)N[C@@H](Cc1c[nH]c2ccccc12)C(=O)N[C@@H](CCCCN)C(=O)N[C@@H](Cc1c[nH]cn1)C(=O)N[C@@H](CC(N)=O)C(=O)N[C@H](C(=O)N[C@H](C(=O)N[C@@H](CCC(N)=O)C(=O)N[C@@H](Cc1c[nH]cn1)C(=O)O)[C@@H](C)O)[C@@H](C)CC)C(C)C)[C@@H](C)CC [Example 71, (3Br-Tyr^1, Aib^2, A5c^11, Nle^14, His^43)hGIP(1-43)-OH]",1.09
4,"CC[C@H](C)[C@H](NC(=O)[C@H](CCCCN)NC(=O)[C@H](CC(=O)O)NC(=O)C1(NC(=O)[C@H](C)NC(=O)[C@@H](NC(=O)C2(NC(=O)[C@H](Cc3ccc(O)cc3)NC(=O)[C@H](CC(=O)O)NC(=O)[C@H](CO)NC(=O)[C@@H](NC(=O)[C@H](Cc3ccccc3)NC(=O)[C@@H](NC(=O)CNC(=O)[C@H](CCC(=O)O)NC(=O)C(C)(C)NC(=O)[C@@H](N)Cc3ccc(O)c(Br)c3)[C@@H](C)O)[C@@H](C)CC)CCCC2)[C@@H](C)CC)CCCC1)C(=O)N[C@@H](Cc1c[nH]cn1)C(=O)N[C@@H](CCC(N)=O)C(=O)N[C@@H](CCC(N)=O)C(=O)N[C@@H](CC(=O)O)C(=O)N[C@@H](Cc1ccccc1)C(=O)N[C@H](C(=O)N[C@@H](CC(N)=O)C(=O)N[C@@H](Cc1c[nH]c2ccccc12)C(=O)N[C@@H](CC(C)C)C(=O)N[C@@H](CC(C)C)C(=O)N[C@@H](C)C(=O)N[C@@H](CCC(N)=O)C(=O)N[C@@H](CCCCN)C(=O)NCC(=O)N[C@@H](CCCCN)C(=O)N[C@@H](CCCCN)C(=O)N[C@@H](CC(N)=O)C(=O)N[C@@H](CC(=O)O)C(=O)N[C@@H](Cc1c[nH]c2ccccc12)C(=O)N[C@@H](CCCCN)C(=O)N[C@@H](Cc1c[nH]cn1)C(=O)N[C@@H](CC(N)=O)C(=O)N[C@H](C(=O)N[C@H](C(=O)N[C@@H](CCC(N)=O)C(=O)N[C@@H](Cc1c[nH]cn1)C(=O)O)[C@@H](C)O)[C@@H](C)CC)C(C)C [Example 72, (3Br-Tyr^1, Aib^2, A5c^11, 14, His^43)hGIP(1-43)-OH]",0.92
5,"CCCC[C@H](NC(=O)[C@H](C)NC(=O)[C@@H](NC(=O)[C@H](CO)NC(=O)[C@H](Cc1ccc(O)cc1)NC(=O)[C@H](CC(=O)O)NC(=O)[C@H](CO)NC(=O)C1(NC(=O)[C@H](Cc2ccccc2)NC(=O)[C@@H](NC(=O)CNC(=O)[C@H](CCC(=O)O)NC(=O)C(C)(C)NC(=O)CCc2ccc(O)cc2)[C@@H](C)O)CCCC1)[C@@H](C)CC)C(=O)N[C@@H](CC(=O)O)C(=O)N[C@@H](CCCCN)C(=O)N[C@H](C(=O)N[C@@H](Cc1c[nH]cn1)C(=O)N[C@@H](CCC(N)=O)C(=O)N[C@@H](CCC(N)=O)C(=O)N[C@@H](CC(=O)O)C(=O)N[C@@H](Cc1ccccc1)C(=O)N[C@H](C(=O)N[C@@H](CC(N)=O)C(=O)N[C@@H](Cc1c[nH]c2ccccc12)C(=O)N[C@@H](CC(C)C)C(=O)N[C@@H](CC(C)C)C(=O)N[C@@H](C)C(=O)N[C@@H](CCC(N)=O)C(=O)N[C@@H](CCCCN)C(N)=O)C(C)C)[C@@H](C)CC [Example 1, (4Hppa^1, Aib^2, A5c^7, Nle^14)hGIP(1-30)-NH2] (Desaminotyrosyl-[Aib]EGTF[Ac5c]SDYSIA[Nle]DKIHQQDFVNWLLAQK-NH2)",12.6
6,"CC[C@H](C)[C@H](NC(=O)[C@H](CCCCN)NC(=O)[C@H](CC(=O)O)NC(=O)[C@H](CCSC)NC(=O)[C@H](C)NC(=O)[C@@H](NC(=O)C(C)(C)NC(=O)[C@H](Cc1ccc(O)cc1)NC(=O)[C@H](CC(=O)O)NC(=O)[C@H](CO)NC(=O)[C@@H](NC(=O)[C@H](Cc1ccccc1)NC(=O)[C@@H](NC(=O)CNC(=O)[C@H](CCC(=O)O)NC(=O)C(C)(C)NC(=O)CCc1ccc(O)cc1)[C@@H](C)O)[C@@H](C)CC)[C@@H](C)CC)C(=O)N[C@@H](Cc1c[nH]cn1)C(=O)N[C@@H](CCC(N)=O)C(=O)N[C@@H](CCC(N)=O)C(=O)N[C@@H](CC(=O)O)C(=O)N[C@@H](Cc1ccccc1)C(=O)N[C@H](C(=O)N[C@@H](CC(N)=O)C(=O)N[C@@H](Cc1c[nH]c2ccccc12)C(=O)N[C@@H](CC(C)C)C(=O)N[C@@H](CC(C)C)C(=O)N[C@@H](C)C(=O)N[C@@H](CCC(N)=O)C(=O)N[C@@H](CCCCN)C(N)=O)C(C)C [Example 4, (4Hppa^1, Aib^2,11)hGIP(1-30)-NH2] (Desaminotyrosyl-[Aib]EGTFISDY[Aib]IAMDKIHQQDFVNWLLAQK-NH2)",15.4
7,"CC[C@H](C)[C@H](NC(=O)[C@H](CO)NC(=O)[C@H](Cc1ccc(O)cc1)NC(=O)[C@H](CC(=O)O)NC(=O)[C@H](CO)NC(=O)C1(NC(=O)[C@H](Cc2ccccc2)NC(=O)[C@@H](NC(=O)CNC(=O)[C@H](CCC(=O)O)NC(=O)C(C)(C)NC(=O)CCc2ccc(O)cc2)[C@@H](C)O)CCCC1)C(=O)N[C@@H](C)C(=O)N[C@@H](CCSC)C(=O)N[C@@H](CC(=O)O)C(=O)N[C@@H](CCCCN)C(=O)N[C@H](C(=O)N[C@@H](Cc1c[nH]cn1)C(=O)N[C@@H](CCC(N)=O)C(=O)N[C@@H](CCC(N)=O)C(=O)N[C@@H](CC(=O)O)C(=O)N[C@@H](Cc1ccccc1)C(=O)N[C@H](C(=O)N[C@@H](CC(N)=O)C(=O)N[C@@H](Cc1c[nH]c2ccccc12)C(=O)N[C@@H](CC(C)C)C(=O)N[C@@H](CC(C)C)C(=O)N[C@@H](C)C(=O)N[C@@H](CCC(N)=O)C(=O)N[C@@H](CCCCN)C(N)=O)C(C)C)[C@@H](C)CC [Example 3, (4Hppa^1, Aib^2, A5c^7)hGIP(1-30)-NH2]",5
8,"[Tic(7-OH)][Aib]EGTFISDY[Ac5c]IAMDKIHQQDFVNWLLAQKGKKNDWKHNITQH-OH [Example 77, (7HO-Tic^1, Aib^2, A5c^11, His^43)hGIP(1-43)-OH]",4.82

# Same assay, conditions: membranes of CHO-K1 cells expressing the human recombinant GIP receptor; 0.05 nM [125I]GIP; 100 minutes at 25° C.; read-out: Ki
row,Ki [nM],Compound
1,42.4,"[3Cl-Tyr^1, Aib^2, A5c^11, Cys^43(succinimide-N—(CH2)2—C(O)NH—(CH2)3—O—CH2—CH(20K PEG)-CH2-20K PEG)]hGIP(1-43)-NH2 [Example 102]"
